ChEMBL document CHEMBL1137324, “Novel selective orally active CRTH2 antagonists for allergic inflammation developed from in silico derived hits” (J Med Chem, 2006)
Values after ≈ are worked out from the molar mass of the structure shown. Active and inactive are the calls of the source. No cut-off for these calls is given here.

Columns and labels:
[1] = target: Sodium-dependent dopamine transporter (Homo sapiens) (UniProt Q01959); assay: Inhibition of human DA transporter at 10 uM
[2] = target: B2 bradykinin receptor (Homo sapiens) (UniProt P30411); assay: Inhibition of human B2 receptor at 10 uM
[3] = target: Glutamate [NMDA] receptor (Homo sapiens) (UniProt Q05586+Q12879+Q13224+O15399+O60391+Q14957+Q8TCU5); assay: Inhibition of human NMDA receptor at 10 uM; type: protein-complex assay
[4] = target: Adenosine receptor A1 (Homo sapiens) (UniProt P30542); assay: Inhibition of human A1 receptor at 10 uM
[5] = target: Sodium-dependent serotonin transporter (Homo sapiens) (UniProt P31645); assay: Inhibition of human 5-HT transporter at 10 uM
[6] = target: T1, GABA-A receptor; anion channel (Homo sapiens) (UniProt P14867+P47870+P18507+P28472+P48169+Q99928+Q9UN88+P34903+O00591+O14764+Q8N1C3+P18505+P78334+P47869+P31644+Q16445); assay: Inhibition of central BZD receptor at 10 uM; type: protein-complex assay
[7] = Half life in rat; type: ADME, organism-based; details: in vivo
[8] = target: Substance-P receptor (Homo sapiens) (UniProt P25103); assay: Inhibition of human NK1 receptor at 10 uM
[9] = target: Sodium-dependent noradrenaline transporter (Homo sapiens) (UniProt P23975); assay: Inhibition of human NE transporter at 10 uM
[10] = target: Type-1 angiotensin II receptor (Homo sapiens) (UniProt P30556); assay: Inhibition of AT1
[11] = target: Endothelin-1 receptor (Homo sapiens) (UniProt P25101); assay: Inhibition of human ETA receptor at 10 uM
Homo sapiens = species: Homo sapiens; assay: Stability in human liver S9 fraction; type: ADME
[12] = target: Prostaglandin G/H synthase 1 (Homo sapiens) (UniProt P23219); assay: Inhibition of COX1 at 10 uM
[13] = Aqueous solubility at pH 1; type: physicochemical; details: buffer
[14] = target: Polyunsaturated fatty acid lipoxygenase ALOX15 (Homo sapiens) (UniProt P16050); assay: Inhibition of 15-LO at 10 uM
[15] = target: Thromboxane A2 receptor (Homo sapiens) (UniProt P21731); assay: Inhibition of human TXA2 receptor at 10 uM
[16] = target: Cholecystokinin receptor type A (Homo sapiens) (UniProt P32238); assay: Inhibition of human CCKA receptor at 10 uM
[17] = Permeability from basolateral to apical side of Caco-2 cells; type: ADME, cell-based; details: human, read-out: permeability
[18] = Distribution coefficient, log D at pH 7.4; type: physicochemical; details: octanol/water
[19] = Aqueous solubility in PBS at pH 7.4; type: physicochemical
[20] = Permeability from apical to basolateral side of Caco-2 cells; type: ADME, cell-based; details: human, read-out: permeability
[21] = target: Type-2 angiotensin II receptor (Homo sapiens) (UniProt P50052); assay: Inhibition of AT2
[22] = target: Adrenergic receptor alpha-1 (Homo sapiens) (UniProt P35348+P25100+P35368); assay: Inhibition of alpha1 receptor at 10 uM; type: protein assay
[23] = target: Prostaglandin D2 receptor 2 (Mus musculus, UniProt Q9Z2J6); assay: Inhibition of mouse CRTH2 receptor
[24] = target: C5a anaphylatoxin chemotactic receptor 1 (Homo sapiens) (UniProt P21730); assay: Inhibition of human C5a receptor at 10 uM
[25] = target: Muscarinic acetylcholine receptor (Homo sapiens) (UniProt P20309+P08173+P11229+P08172+P08912); assay: Inhibition of human M receptor at 10 uM; type: protein assay
[26] = target: Phospholipase A2 (Homo sapiens) (UniProt P04054); assay: Inhibition of PLA2 at 10 uM
[27] = target: T2, Prostaglandin D2 receptor 2 (Homo sapiens, UniProt Q9Y5Y4); assay: Displacement of [3H]PGD2 from human CRTH2 receptor expressed in HEK293 cells; type: cell-based
T2 sequence (Q9Y5Y4 whole entry): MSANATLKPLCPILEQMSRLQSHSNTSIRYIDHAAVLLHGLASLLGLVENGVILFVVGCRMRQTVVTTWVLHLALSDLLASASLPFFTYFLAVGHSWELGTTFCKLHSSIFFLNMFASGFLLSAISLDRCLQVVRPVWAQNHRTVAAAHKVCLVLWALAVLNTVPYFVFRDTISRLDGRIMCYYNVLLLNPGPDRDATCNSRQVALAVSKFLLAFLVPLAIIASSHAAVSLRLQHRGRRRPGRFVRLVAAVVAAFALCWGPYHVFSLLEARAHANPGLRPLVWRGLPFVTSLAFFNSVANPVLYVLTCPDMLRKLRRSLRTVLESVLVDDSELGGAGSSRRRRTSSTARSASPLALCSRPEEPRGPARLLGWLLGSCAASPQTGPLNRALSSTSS

[28] = target: Adrenergic receptor alpha-2 (Homo sapiens) (UniProt P08913+P18825+P18089); assay: Inhibition of alpha-2 receptor at 10 uM; type: protein assay
[29] = target: Histamine H2 receptor (Homo sapiens) (UniProt P25021); assay: Inhibition of human H2 receptor at 10 uM
[30] = target: Nociceptin receptor (Homo sapiens) (UniProt P41146); assay: Inhibition of human ORL1 at 10 uM
[31] = target: Vasopressin V1a receptor (Homo sapiens) (UniProt P37288); assay: Inhibition of human V1a receptor at 10 uM
[32] = target: Gastric inhibitory polypeptide receptor (Homo sapiens) (UniProt P48546); assay: Inhibition of GIP receptor at 10 uM
Mus musculus [33] = assay: Inhibition of peribronchial eosinophilia in BALB/c mouse at 30 mg/kg, po relative to control; type: functional
[34] = Inhibition of neuronal nicotinic receptor at 10 uM
[35] = target: Melanocortin receptor 4 (Homo sapiens) (UniProt P32245); assay: Inhibition of human MC4 receptor at 10 uM
[36] = target: Sigma non-opioid intracellular receptor 1 (Homo sapiens) (UniProt Q99720); assay: Inhibition of sigma receptor at 10 uM
[37] = target: D(1A) dopamine receptor (Homo sapiens) (UniProt P21728); assay: Inhibition of human D1 receptor at 10 uM
[38] = target: T1, GABA-A receptor; anion channel (Homo sapiens); assay: Inhibition of human GABA receptor at 10 uM; type: protein-complex assay
Mus musculus [39] = assay: Inhibition of goblet cell hyperplasia in BALB/c mouse at 5 mg/kg, po relative to control; type: functional, organism-based; set-up: dose 5 mg/kg
[40] = target: Type-1 angiotensin II receptor (Homo sapiens) (UniProt P30556); assay: Inhibition of human AT1 receptor at 10 uM
[41] = target: Type-2 angiotensin II receptor (Homo sapiens) (UniProt P50052); assay: Inhibition of human AT2 receptor at 10 uM
[42] = target: Melanin-concentrating hormone receptor 1 (Homo sapiens) (UniProt Q99705); assay: Inhibition of human MCH1 receptor at 10 uM
Mus musculus [43] = assay: Inhibition of peribronchial eosinophilia in BALB/c mouse at 5 mg/kg, po relative to control; type: functional, organism-based; set-up: dose 5 mg/kg
Mus musculus [44] = assay: Inhibition of peribronchial eosinophilia in BALB/c mouse at 100 mg/kg, po relative to control; type: functional

Type-2 angiotensin II receptor (Homo sapiens), sequence (P50052 whole entry): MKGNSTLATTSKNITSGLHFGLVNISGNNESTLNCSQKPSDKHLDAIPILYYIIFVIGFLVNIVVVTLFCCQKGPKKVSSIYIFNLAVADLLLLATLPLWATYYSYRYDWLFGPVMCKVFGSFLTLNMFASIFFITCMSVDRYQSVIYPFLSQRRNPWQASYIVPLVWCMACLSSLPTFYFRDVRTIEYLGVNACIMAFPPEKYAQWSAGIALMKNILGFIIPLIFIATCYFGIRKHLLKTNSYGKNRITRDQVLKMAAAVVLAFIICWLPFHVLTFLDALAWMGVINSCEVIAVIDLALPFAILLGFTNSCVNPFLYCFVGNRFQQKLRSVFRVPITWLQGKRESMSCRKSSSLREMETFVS
Type-1 angiotensin II receptor (Homo sapiens), sequence (P30556 whole entry): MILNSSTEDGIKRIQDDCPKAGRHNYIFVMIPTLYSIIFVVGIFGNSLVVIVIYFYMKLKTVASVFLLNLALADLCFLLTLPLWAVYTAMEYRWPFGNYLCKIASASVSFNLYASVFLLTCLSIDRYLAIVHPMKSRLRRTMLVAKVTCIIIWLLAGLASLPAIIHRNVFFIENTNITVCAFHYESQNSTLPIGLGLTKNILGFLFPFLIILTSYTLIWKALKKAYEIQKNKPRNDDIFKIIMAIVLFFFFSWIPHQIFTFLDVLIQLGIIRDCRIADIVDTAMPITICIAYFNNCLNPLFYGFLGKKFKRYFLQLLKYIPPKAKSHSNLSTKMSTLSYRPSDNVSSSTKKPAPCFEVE
Phospholipase A2 (Homo sapiens), sequence (P04054 23-148 limits assumed): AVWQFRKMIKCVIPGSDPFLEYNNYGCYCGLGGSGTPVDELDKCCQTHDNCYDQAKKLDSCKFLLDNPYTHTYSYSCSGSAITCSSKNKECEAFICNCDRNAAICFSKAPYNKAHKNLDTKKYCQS
Adenosine receptor A1 (Homo sapiens), sequence (P30542 whole entry): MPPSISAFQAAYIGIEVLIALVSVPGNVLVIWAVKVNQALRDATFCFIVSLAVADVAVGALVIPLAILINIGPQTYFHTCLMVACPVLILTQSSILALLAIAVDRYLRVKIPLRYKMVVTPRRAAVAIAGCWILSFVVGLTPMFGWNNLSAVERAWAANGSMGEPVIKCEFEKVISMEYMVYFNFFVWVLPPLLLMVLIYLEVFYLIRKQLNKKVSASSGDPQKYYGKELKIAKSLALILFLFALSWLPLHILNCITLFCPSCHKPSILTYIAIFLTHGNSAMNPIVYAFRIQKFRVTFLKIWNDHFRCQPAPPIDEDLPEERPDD
Prostaglandin D2 receptor 2 (Mus musculus, UniProt Q9Z2J6), sequence (Q9Z2J6 whole entry): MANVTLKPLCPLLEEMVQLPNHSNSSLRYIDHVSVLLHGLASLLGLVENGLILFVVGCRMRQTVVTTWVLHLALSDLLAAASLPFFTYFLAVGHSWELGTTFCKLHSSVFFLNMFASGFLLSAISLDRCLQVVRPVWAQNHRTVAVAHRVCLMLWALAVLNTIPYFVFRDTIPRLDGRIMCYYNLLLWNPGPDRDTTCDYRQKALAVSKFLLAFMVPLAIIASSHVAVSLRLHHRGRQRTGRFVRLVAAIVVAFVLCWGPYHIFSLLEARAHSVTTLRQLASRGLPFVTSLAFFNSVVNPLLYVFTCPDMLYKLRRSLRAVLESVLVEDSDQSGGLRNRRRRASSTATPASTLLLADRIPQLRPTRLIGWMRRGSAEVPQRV
Sodium-dependent dopamine transporter (Homo sapiens), sequence (Q01959 whole entry): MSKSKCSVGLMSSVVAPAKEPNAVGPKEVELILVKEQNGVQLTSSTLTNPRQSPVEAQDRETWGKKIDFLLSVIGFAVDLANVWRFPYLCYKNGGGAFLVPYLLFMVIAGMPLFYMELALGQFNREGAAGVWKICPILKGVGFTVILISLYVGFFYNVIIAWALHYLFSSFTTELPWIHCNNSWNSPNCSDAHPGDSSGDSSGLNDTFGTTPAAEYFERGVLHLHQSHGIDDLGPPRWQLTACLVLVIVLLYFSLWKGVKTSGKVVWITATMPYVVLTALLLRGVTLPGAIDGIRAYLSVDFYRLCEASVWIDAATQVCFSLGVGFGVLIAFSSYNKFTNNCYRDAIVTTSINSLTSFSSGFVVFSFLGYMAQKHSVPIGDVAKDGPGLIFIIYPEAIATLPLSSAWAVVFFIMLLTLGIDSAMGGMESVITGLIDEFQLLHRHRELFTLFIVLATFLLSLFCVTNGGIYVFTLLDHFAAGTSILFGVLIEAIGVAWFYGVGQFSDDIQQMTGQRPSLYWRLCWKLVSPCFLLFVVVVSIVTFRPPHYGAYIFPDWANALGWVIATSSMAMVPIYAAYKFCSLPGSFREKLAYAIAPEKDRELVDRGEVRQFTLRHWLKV
Vasopressin V1a receptor (Homo sapiens), sequence (P37288 whole entry, looked up): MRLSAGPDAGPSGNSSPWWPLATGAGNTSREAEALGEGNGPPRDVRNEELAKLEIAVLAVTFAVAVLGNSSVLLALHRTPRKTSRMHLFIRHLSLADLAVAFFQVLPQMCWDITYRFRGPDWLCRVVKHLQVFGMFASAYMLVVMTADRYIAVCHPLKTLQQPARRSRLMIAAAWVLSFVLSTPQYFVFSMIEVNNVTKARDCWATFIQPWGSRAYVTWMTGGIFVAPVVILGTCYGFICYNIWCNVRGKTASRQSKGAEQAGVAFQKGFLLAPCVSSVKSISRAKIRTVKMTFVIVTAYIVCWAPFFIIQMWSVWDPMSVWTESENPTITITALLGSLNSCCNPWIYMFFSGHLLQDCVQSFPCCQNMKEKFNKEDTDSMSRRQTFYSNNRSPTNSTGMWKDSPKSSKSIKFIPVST
Sigma non-opioid intracellular receptor 1 (Homo sapiens), sequence (Q99720 whole entry): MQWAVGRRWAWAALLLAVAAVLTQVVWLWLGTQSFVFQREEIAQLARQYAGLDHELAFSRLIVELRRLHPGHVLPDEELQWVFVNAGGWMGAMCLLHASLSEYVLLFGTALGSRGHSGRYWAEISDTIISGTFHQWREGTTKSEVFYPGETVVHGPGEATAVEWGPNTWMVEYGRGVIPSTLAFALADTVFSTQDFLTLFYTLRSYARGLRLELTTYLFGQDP
D(1A) dopamine receptor (Homo sapiens), sequence (P21728 whole entry): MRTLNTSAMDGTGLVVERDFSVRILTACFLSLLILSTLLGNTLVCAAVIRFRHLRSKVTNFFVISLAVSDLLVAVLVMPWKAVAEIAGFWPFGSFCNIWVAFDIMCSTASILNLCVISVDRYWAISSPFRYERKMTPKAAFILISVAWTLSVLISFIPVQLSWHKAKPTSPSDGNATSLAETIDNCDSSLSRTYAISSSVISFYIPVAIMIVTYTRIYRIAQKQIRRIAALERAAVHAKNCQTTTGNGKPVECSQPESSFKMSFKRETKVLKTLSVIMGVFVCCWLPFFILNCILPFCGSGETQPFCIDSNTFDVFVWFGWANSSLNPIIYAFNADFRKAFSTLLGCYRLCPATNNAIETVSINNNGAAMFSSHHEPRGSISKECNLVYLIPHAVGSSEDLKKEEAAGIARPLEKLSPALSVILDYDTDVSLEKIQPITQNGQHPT
Cholecystokinin receptor type A (Homo sapiens), sequence (P32238 whole entry): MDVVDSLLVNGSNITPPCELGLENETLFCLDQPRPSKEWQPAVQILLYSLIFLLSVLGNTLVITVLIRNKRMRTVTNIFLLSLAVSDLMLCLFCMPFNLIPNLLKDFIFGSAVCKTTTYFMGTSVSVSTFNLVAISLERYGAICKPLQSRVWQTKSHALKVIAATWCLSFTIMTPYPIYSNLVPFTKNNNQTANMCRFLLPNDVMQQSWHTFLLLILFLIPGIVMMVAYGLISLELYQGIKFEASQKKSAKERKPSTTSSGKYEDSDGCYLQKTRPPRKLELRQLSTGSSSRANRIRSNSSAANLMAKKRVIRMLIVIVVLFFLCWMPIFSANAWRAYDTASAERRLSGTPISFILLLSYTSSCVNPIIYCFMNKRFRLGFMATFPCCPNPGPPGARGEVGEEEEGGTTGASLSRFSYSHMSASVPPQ
Melanocortin receptor 4 (Homo sapiens), sequence (P32245 whole entry): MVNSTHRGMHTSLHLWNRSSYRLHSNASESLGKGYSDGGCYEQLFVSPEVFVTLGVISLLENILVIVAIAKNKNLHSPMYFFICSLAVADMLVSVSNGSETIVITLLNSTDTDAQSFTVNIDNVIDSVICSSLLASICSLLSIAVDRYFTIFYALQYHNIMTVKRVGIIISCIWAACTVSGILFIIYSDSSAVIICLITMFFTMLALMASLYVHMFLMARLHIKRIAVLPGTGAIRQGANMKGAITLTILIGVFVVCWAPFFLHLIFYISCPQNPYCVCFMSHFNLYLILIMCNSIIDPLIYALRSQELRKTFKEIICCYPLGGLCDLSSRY
Sodium-dependent serotonin transporter (Homo sapiens), sequence (P31645 whole entry, looked up): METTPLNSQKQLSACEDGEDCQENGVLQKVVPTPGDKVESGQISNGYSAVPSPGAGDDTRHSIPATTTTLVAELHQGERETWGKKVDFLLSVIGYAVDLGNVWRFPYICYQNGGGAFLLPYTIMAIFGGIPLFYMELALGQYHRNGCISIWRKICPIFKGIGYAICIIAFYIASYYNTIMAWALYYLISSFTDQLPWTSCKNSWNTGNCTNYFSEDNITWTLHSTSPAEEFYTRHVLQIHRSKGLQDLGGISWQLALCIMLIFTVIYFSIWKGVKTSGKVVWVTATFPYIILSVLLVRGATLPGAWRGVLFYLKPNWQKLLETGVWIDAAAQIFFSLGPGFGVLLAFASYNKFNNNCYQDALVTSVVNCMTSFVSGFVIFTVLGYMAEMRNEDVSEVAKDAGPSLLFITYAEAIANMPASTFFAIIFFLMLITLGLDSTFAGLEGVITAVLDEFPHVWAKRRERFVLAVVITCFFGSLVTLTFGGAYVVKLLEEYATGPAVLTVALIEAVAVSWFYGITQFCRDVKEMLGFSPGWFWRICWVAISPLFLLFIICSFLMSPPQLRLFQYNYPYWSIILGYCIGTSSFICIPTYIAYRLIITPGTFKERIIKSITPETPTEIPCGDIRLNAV

Q: For `O=C(O)COc1ccc(Br)cc1C(=O)c1cnn(-c2ccccc2)c1`, which inhibition [1] is on record?
A: < 30%

Q: And the inhibition [2]?
A: < 30%

Q: And the inhibition [3]?
A: < 30%

Q: And the inhibition [4]?
A: < 30%

Q: And the inhibition [5]?
A: < 30%

Q: And the inhibition [6]?
A: < 30%

Q: And the half-life [7]?
A: 2.7 h

Q: And the inhibition [8]?
A: < 30%

Q: And the inhibition [9]?
A: < 30%

Q: What about the Activity [10] of the same compound?
A: inactive

Q: What about the inhibition [11] of the same compound?
A: < 30%

Q: What about the Stability (Homo sapiens) of the same compound?
A: 93%

Q: And the inhibition [12]?
A: < 20%

Q: And the solubility [13]?
A: 80 µM (≈ 32.1 µg/mL)

Q: What about the inhibition [14] of the same compound?
A: < 20%

Q: And the inhibition [15]?
A: < 30%

Q: And the inhibition [16]?
A: < 30%

Q: And the Papp B→A [17]?
A: 13 ×10⁻⁶ cm/s

Q: And the logD [18]?
A: 0.64

Q: And the solubility [19]?
A: 200 µM (≈ 80.2 µg/mL)

Q: And the Papp A→B [20]?
A: 8.7 ×10⁻⁶ cm/s

Q: What about the Activity [21] of the same compound?
A: inactive

Q: And the inhibition [22]?
A: < 30%

Q: And the IC50 [23]?
A: 3.2 nM

Q: What about the inhibition [24] of the same compound?
A: < 30%

Q: And the inhibition [25]?
A: < 30%

Q: And the inhibition [26]?
A: < 20%

Q: And the IC50 [27]?
A: 1.5 nM

Q: And the inhibition [28]?
A: < 30%

Q: What about the inhibition [29] of the same compound?
A: < 30%

Q: And the inhibition [30]?
A: < 30%

Q: And the inhibition [31]?
A: < 30%

Q: What about the inhibition [32] of the same compound?
A: < 30%

Q: And the inhibition in vivo at 30 mg/kg (Mus musculus [33])?
A: 62%

Q: What about the inhibition [34] of the same compound?
A: < 30%

Q: What about the inhibition [35] of the same compound?
A: < 30%

Q: And the inhibition [36]?
A: < 30%

Q: What about the inhibition [37] of the same compound?
A: < 30%

Q: And the inhibition [38]?
A: < 30%

Q: What about the Activity (Mus musculus [39]) of the same compound?
A: Active

Q: And the inhibition [40]?
A: < 30%

Q: What about the inhibition [41] of the same compound?
A: < 30%

Q: And the inhibition [42]?
A: < 30%

Q: And the Activity (Mus musculus [43])?
A: Active

Q: What about the inhibition in vivo at 100 mg/kg (Mus musculus [44]) of the same compound?
A: 55%
